Experimental findings from US20260109712A1, “RIFAMYCINS FOR NONTUBERCULOUS MYCOBACTERIA” (priority 2022, published 2026) are described below.

Series [1] is described as follows: Mouse pharmacokinetics studies. In kind it is in vivo, CD-1 mice. In outline: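 Plasma from K2EDTA-collected blood analysed by LC-MS/MS with multiple-reaction monitoring in electrospray positive mode. Parameters derived by non-compartmental analysis.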
Another series concerns M. simiae. The series is described as follows: MIC, Table 9. In kind it is cell-based, Mycobacterium simiae.
Another series relates to M. chelonae. The series is described as follows: MIC, Table 9. In kind it is cell-based, Mycobacterium chelonae.
The test system of the next series is M. fortuitum. The series can be described thus: MIC, Table 9. The format is cell-based, Mycobacterium fortuitum.
For series [2], the system named is M. abscessus subspecies abscessus. The series is described as follows: MIC, Table 9. The format is cell-based, Mycobacterium abscessus. Conditions: for MIC: M. abscessus subspecies abscessus.
For series [3], the system named is M. abscessus subspecies massilense. The series is described as follows: MIC, Table 9. Conditions: for MIC: M. abscessus subspecies massilense. The format is cell-based, Mycobacterium abscessus.
Series [4] concerns M. abscessus subspecies bolletii. The series can be described thus: MIC, Table 9. The format is cell-based, Mycobacterium abscessus. Conditions: for MIC: M. abscessus subspecies bolletii.
The next series has as its system M. abscessus Bamboo. The series is described as follows: Caseum surrogate MBC90 (cMBC90) kill assay. In kind it is cell-based, Mycobacterium abscessus. To be noted: for cMBC90/bMBC90: 5-day assays; for MBC: read-out: cMBC90.
Description: (§1) The surrogate matrix was generated as described previously from cultured THP-1 cells (ATCC TIB-202) (mBio, 2023, 14, e0059823). M. abscessus exponential cultures grown in Middlebrook 7H9 broth (Sigma Aldrich) (OD600 0.6-0.9) were spun down and resuspended in water to an OD600 of 7, 0.7, and 0.07. As described for the M. tuberculosis caseum surrogate assay (mnBio, 2023, 14, e0059823), the bacterial suspensions (at three different dilutions resulting in ˜10^9, 10^8, and 10^7 starting CFU/mL, represented by circle, square, and triangle indicators respectively) were added to the caseum surrogate in the ratio 2:1 (vol/wt), briefly homogenized with 1.4-mm zirconia beads, divided evenly into nine 1.5-mL microcentrifuge tubes, and incubated as standing cultures at 37° C. At the indicated time points, tubes were removed and used for CFU enumeration by plating on Middlebrook 7H11 agar (Sigma Aldrich). Separate tubes were used at each time point. To determine the kill curves, cultures with a starting CFU/mL of 10^8 were used (resulting in the middle curve with square indicators). Arrows indicate the time points when drugs were added and the end of the treatment. The experiment was repeated three times independently, yielding similar results. A representative example is shown. Dots and error bars represent means and standard deviations of three technical replicates, respectively.
FIGS. 29A-29M show the Dose-response kill curves against M. abscessus Bamboo in caseum surrogate. M. abscessus cultures were set up as described in the legend of FIG. 28. Bacterial cell suspensions were added to yield a starting CFU of 10^8/mL (FIG. 28, middle growth curve with square indicators). […] The shaded areas indicate drug concentration windows achieved in caseum in vivo. (Antimicrob. Agents Chemother., 2021, 65, e0050621; Antimicrob. Agents Chemother., 2022, 66, e0221221; PLoS Med., 2019, 16, e1002773; ACS Infect. Dis., 2016, 2, 251-267). The experiment was repeated twice independently, yielding similar results. A representative example is shown. Dots and error bars represent means and standard deviations of three technical replicates, respectively. Horizontal dotted lines indicate the cutoff for 1 log reduction in CFU compared to 10-day drug-free control culture. The cMBC90 values shown in Table 16 are the drug concentrations that reduce CFU by 90% relative to the CFU of drug-free controls at day 10. Since the cultures were in the stationary phase on day 5 when drug treatment started, the CFUs of the drug-free cultures at day 10 were similar to the CFUs of the drug-free cultures at day 5 (FIG. 28).
as §1, with “(doi: 10.1128/mbio.00598-23).” for “(mBio, 2023, 14, e0059823).”, “(doi: 10.1128/mbio.00598-23),” for “(mnBio, 2023, 14, e0059823),”, “CFU/mL)” for “CFU/mL, represented by circle, square, and triangle indicators respectively)”, “curves for the drugs,” for “curves,”, “used.” for “used (resulting in the middle curve with square indicators). Arrows indicate the time points when drugs were added and the end of the treatment.”, “results.” for “results. A representative example is shown. Dots and error bars represent means and standard deviations of three technical replicates, respectively.”
The experiment was repeated twice independently, yielding similar results. A representative example is shown. The cMBC90 values shown in Table 16 are the drug concentrations that reduce CFU by 90% relative to the CFU of drug-free controls at day 10. […]

Another series deals with M. chelonae ATCC 35752. The series can be described thus: MIC, anti-mycobacterial profiling. The format is cell-based, Mycobacterium chelonae. To be noted: for MIC: mean of two experiments.
The test system of series [5] is M. avium subsp. hominisuis MAC109. The series is described as follows: MIC, anti-mycobacterial profiling. In kind it is cell-based, Mycobacterium avium. To be noted: for MIC: mean of two experiments.
In series [6] the test system is M. intracellulare ATCC 13950. The series is described as follows: MIC, anti-mycobacterial profiling. The format is cell-based, Mycobacterium intracellulare. Conditions: for MIC: mean of two experiments.
Another series concerns M. xenopi ATCC 19250. The series is described as follows: MIC, anti-mycobacterial profiling. In kind it is cell-based, Mycobacterium xenopi. Conditions: for MIC: mean of two experiments.
The mark [7] stands for this setting: Mycobacteroides abscessus, 120 h.
The mark [8] stands for this setting: Mycobacteroides chelonae, ATCC35752.
Where [9] appears, read: Mycobacterium intracellulare, ATCC13950.
Setting [10] is: Mycobacterium xenopi, ATCC19250.
The mark [11] stands for this setting: female, CD-1, mouse, in vivo, 10 mg/kg.
Where [12] appears, read: female, CD-1, mouse, in vivo, iv, 10 mg/kg.

Converted amounts (≈) assume the structure as drawn. Read-outs that look alike come from different tables or passages of the source.

As for `CO[C@H]1/C=C/O[C@@]2(C)Oc3c(C)c(O)c4c(c3C2=O)C2=NC3(CCN(CC(C)C)CC3)NC2=C(NC(=O)/C(C)=C/C=C/[C@H](C)[C@H](O)[C@@H](C)[C@@H](O)[C@@H](C)[C@H](OC(=O)c2cccnc2)[C@@H]1C)C4=O` [5m, 25-O-(3-pyridinecarbonyl)-25-O-desacetyrifabutin], in series [1] (mouse, in vivo, 10 mg/kg), the CL was determined as 3.0 mL/min/kg. In series [1] (mouse, in vivo, 10 mg/kg), this compound yielded a Vd of 1.6 L/kg. The “fAUC/MIC, times higher than rifabutin” value in [1] (mouse, in vivo, po, 10 mg/kg) worked out at 128. The MIC in the series on M. simiae turned out to be 0.18 µM (≈ 0.164 µg/mL); with M. chelonae, 0.01 µM (≈ 0.0091 µg/mL); against M. fortuitum it was 0.01 µM (≈ 0.0091 µg/mL); in series [2], 0.05 µM (≈ 0.0455 µg/mL); in series [3], 0.04 µM (≈ 0.0364 µg/mL); in series [4], 0.03 µM (≈ 0.0273 µg/mL). In addition, the MIC in the series on M. chelonae ATCC 35752 is on record as 0.02 µM (≈ 0.0182 µg/mL); in series [5], 0.04 µM (≈ 0.0364 µg/mL); in series [6], 0.06 µM (≈ 0.0546 µg/mL); against M. xenopi ATCC 19250, 0.005 µM (≈ 0.00455 µg/mL). Also, the fold improvement with M. simiae (5m vs rifabutin) was 56; with M. chelonae (5m vs rifabutin), 58; with M. fortuitum (5m vs rifabutin), 60; in series [2] (5m vs rifabutin, subspecies abscessus), 30; in series [3] (5m vs rifabutin, subspecies massilense) it was 8; in [4] (5m vs rifabutin, subspecies bolletii) it was 40. This compound gave a cMBC90/bMBC90 with M. abscessus Bamboo of 12.5. Further, in the series with M. abscessus Bamboo (caseum surrogate, 5 days, 90% CFU reduction vs drug-free control), the MBC was determined as 2 µM (≈ 1.82 µg/mL). Besides, the “Fold improvement (RFB-5m vs RFB)” value with M. chelonae ATCC 35752 is recorded as 30; in series [5], 0.8; in series [6] it was 0.8; in the series with M. xenopi ATCC 19250, 4.0.

As to `CC[C@H]1OC(=O)[C@H](C)[C@@H](O[C@H]2C[C@@](C)(OC)[C@@H](O)[C@H](C)O2)[C@H](C)[C@@H](O[C@@H]2O[C@H](C)C[C@H](N(C)C)[C@H]2O)[C@](C)(OC)C[C@@H](C)C(=O)[C@H](C)[C@@H](O)[C@]1(C)O` [clarithromycin, reference compound], the cMBC90/bMBC90 in the series with M. abscessus Bamboo turned out to be 64. In the series on M. abscessus Bamboo (setting [7]), the MBC came to 128 µM (≈ 95.7 µg/mL). Moreover, the MIC in the series on M. chelonae ATCC 35752 (setting [8]) turned out to be 0.1 µM (≈ 0.0748 µg/mL); in series [5] (Mycobacterium avium), 0.5 µM (≈ 0.374 µg/mL); in series [6] (setting [9]), 0.4 µM (≈ 0.299 µg/mL); against M. xenopi ATCC 19250 (setting [10]) it was 0.06 µM (≈ 0.0449 µg/mL).

`CO[C@H]1/C=C/O[C@@]2(C)Oc3c(C)c(O)c4c(c3C2=O)C2=NC3(CCN(CC(C)C)CC3)NC2=C(NC(=O)/C(C)=C\C=C\[C@H](C)[C@H](O)[C@@H](C)[C@@H](O)[C@@H](C)[C@H](OC(C)=O)[C@@H]1C)C4=O` [rifabutin, reference compound]: the ƒAUC/MIC in [1] (Table 18) and in [1] (Table 20) was 0.22 each time. Also, the “25-O-desacetyl rifabutin 6 detected in mouse plasma” value in series [1] (female, CD-1, mouse, in vivo) came out at 0.4%. Besides, the F in series [1] (female, CD-1, mouse, in vivo) stood at 70%. Besides, the Vd was 3.5 L/kg in series [1] (female, CD-1, mouse, in vivo); 3.51 L/kg in series [1] (setting [11]); 3.51 L/kg in series [1] (setting [12]). Moreover, the clearance stood at 10.3 mL/min/kg in [1] (female, CD-1, mouse, in vivo); 10.3 mL/min/kg in series [1] (setting [11]); 10.3 mL/min/kg in series [1] (setting [12]). In series [1] (female, CD-1, mouse, in vivo, iv), this compound showed a C-25 deacylation i.v. of 0.4%. For the same compound, the C-25 deacylation p.o. in series [1] (female, CD-1, mouse, in vivo, po) was determined as 0.4%. Moreover, the AUC in series [1] (female, CD-1, mouse, in vivo, po, 10 mg/kg) was 11500 ng·h/mL. In series [1] (female, mouse, in vivo, CD-1 mice, 10 mg/kg), this compound showed a half-life of 4 h. Moreover, in series [1] (p.o. doses of 10 mg/kg), the fAUC/MIC is on record as 0.22. Besides, the MIC against M. simiae (Mycobacterium simiae) was determined as 10 µM (≈ 8.47 µg/mL); in the series with M. chelonae (Mycobacteroides chelonae) it was 0.58 µM (≈ 0.491 µg/mL); with M. fortuitum (Mycolicibacterium fortuitum), 0.6 µM (≈ 0.508 µg/mL); in series [2] (Mycobacteroides abscessus), 1.5 µM (≈ 1.27 µg/mL); in series [3] (Mycobacteroides abscessus), 0.3 µM (≈ 0.254 µg/mL); in series [4] (Mycobacteroides abscessus), 1.2 µM (≈ 1.02 µg/mL). Besides, the MIC with M. chelonae ATCC 35752 (setting [8]) worked out at 0.6 µM (≈ 0.508 µg/mL); in series [5] (Mycobacterium avium), 0.03 µM (≈ 0.0254 µg/mL); in series [6] (setting [9]) it was 0.05 µM (≈ 0.0424 µg/mL); against M. xenopi ATCC 19250 (setting [10]), 0.02 µM (≈ 0.0169 µg/mL). In the series on M. abscessus Bamboo, this compound came in with a cMBC90/bMBC90 of 16. Besides, the MBC in the series on M. abscessus Bamboo (setting [7]) was found to be 72 µM (≈ 61 µg/mL).
